# In patent US20120065187A1 (ALCON RESEARCH, LTD, priority 2008, published 2012):
# Key:
# human H4 = biological target: T1, human H4 (Homo sapiens, UniProt Q9H3N8); experiment: In vitro histamine receptor cell-based assay (aequorin bioluminescence), H4 antagonism; settings: CHO-K1 cells expressing human H4, aequorin and Gα16; histamine at EC80; read-out: H4 Antagonist EC50
# T1 construct: host or cells: CHO-K1
# Procedure, shortened: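 CHO-K1 cells stably expressing human H4, Gα16 and mitochondrial aequorin, loaded with 5 μM coelenterazine-h, preincubated 15 min at room temperature with compound, then challenged with histamine at EC80.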
# human H1 = biological target: T2, human H1 (Homo sapiens, UniProt P35367); experiment: In vitro histamine receptor cell-based assay (aequorin bioluminescence), H1 antagonism; settings: CHO-K1 cells expressing human H1 and aequorin; histamine at EC80; read-out: H1 Antagonist EC50
# T2 construct: host or cells: CHO-K1
# Method: The cell-based assays utilize an aequorin dependent bioluminescence signal. Doubly-transfected, stable CHO-K1 cell lines expressing human H1 or H4, mitochondrion-targeted aequorin, and (H4 only) human G protein Gα16 are obtained from Perkin-Elmer. Cells are maintained in F12 (Ham's) growth medium, containing 10% (vol./vol.) fetal bovine serum, penicillin (100 IU/mL), streptomycin (0.1 mg/mL), zeocin (0.25 mg/mL) and geneticin (0.40 mg/mL). Cell media components are from Invitrogen, Inc. One day prior to assay, the growth medium is replaced with the same, excluding zeocin and geneticin.
# For assay preparation, growth medium is aspirated, and cells are rinsed with calcium-free, magnesium-free phosphate-buffered saline, followed by two to three minute incubation in Versene (Invitrogen, Inc.) at 37° C. Assay medium (DMEM:F12 [50:50], phenol-red free, containing 1 mg/mL protease-free bovine serum albumin) is added to collect the released cells, which are then centrifuged. The cell pellet is re-suspended in assay medium, centrifuged once more, and re-suspended in assay medium to a final density of 5×10^6 cells/mL. Coelenterazine-h dye (500 μM in ethanol) is added to a final concentration of 5 μM, and mixed immediately. The conical tube containing the cells is then wrapped with foil to protect the light-sensitive dye. The cells are incubated for four hours further at room temperature (approximately 21° C.) with end-over-end rotation to keep them in suspension.
# Just before assay, the dye-loaded cells are diluted to 0.75×10^6 cells/mL (H1 receptor) or 1.5×10^6 cells/mL (H4 receptor) with additional assay medium. Cells are dispensed to 1536 well micro-titer plates at 3 μL/well. To assay receptor antagonism, 60 nl of 100× concentration test compounds in 100% dimethyl sulfoxide (DMSO) are dispensed to the wells, one compound per well, by passive pin transfer, and the plates are incubated for 15 minutes at room temperature. Assay plates are then transferred to a Lumilux bioluminescence plate reader (Perkin-Elmer) equipped with an automated 1536 disposable tip pipette. The pipette dispenses 3 μL/well of agonist (histamine, at twice the final concentration, where final concentration is a previously determined EC80) in assay medium, with concurrent bioluminescence detection. Agonist activity of test compounds is excluded by separate assays that measure response to test compounds immediately, without added histamine agonist.
# CCD image capture on the Lumilux includes a 5 second baseline read prior to agonist addition, and generally a 40 second read per plate after agonist addition. A decrease in bioluminescence signal (measured either as area-under-the-curve, or maximum signal amplitude minus minimum signal amplitude) correlates with receptor antagonism in a dose dependent manner. The negative control is DMSO lacking any test compound. For antagonist assays, the positive controls are diphenhydramine (2-Diphenylmethoxy-N,N-dimethylethylamine, 10 μM final concentration, H1 receptor) or JNJ7777120 (1-[(5-Chloro-1H-indol-2-yl)carbonyl]-4-methyl-piperazine, 10 μM final concentration, H4 receptor). Efficacy is measured as a percentage of positive control activity.
# T2 sequence (P35367 whole entry): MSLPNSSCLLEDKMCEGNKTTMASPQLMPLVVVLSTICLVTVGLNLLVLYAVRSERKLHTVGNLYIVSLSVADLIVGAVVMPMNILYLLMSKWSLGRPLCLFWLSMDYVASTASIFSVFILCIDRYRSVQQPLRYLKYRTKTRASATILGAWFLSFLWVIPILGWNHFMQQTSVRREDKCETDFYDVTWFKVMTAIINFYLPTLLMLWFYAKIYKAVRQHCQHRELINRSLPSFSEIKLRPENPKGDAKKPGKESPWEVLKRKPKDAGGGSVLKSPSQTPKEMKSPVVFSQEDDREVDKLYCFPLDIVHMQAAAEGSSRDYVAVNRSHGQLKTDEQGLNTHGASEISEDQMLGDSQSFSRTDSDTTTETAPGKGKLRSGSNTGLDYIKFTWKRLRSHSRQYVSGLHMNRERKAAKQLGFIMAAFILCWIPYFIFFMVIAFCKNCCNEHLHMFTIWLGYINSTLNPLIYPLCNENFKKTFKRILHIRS
EC50 (human H4) [µM],EC50 (human H1) [µM],Compound
> 10,> 10,"C[C@@H]1CN(c2nc3ccc(Cl)cc3n3cnnc23)C[C@H](C)N1 [Example 83, 8-chloro-4-((3S,5R)-3,5-dimethylpiperazin-1-yl)-[1,2,4]triazolo[4,3-a]quinoxaline]"
< 10,> 10,"Cc1nnc2c(N3CCN(C)CC3)nc3ccc(Cl)cc3n12 [Example 84, 8-chloro-1-methyl-4-(4-methylpiperazin-1-yl)-[1,2,4]triazolo[4,3-a]quinoxaline]"
> 10,> 10,"Cc1nnc2c(N3CCNCC3)nc3ccc(Cl)cc3n12 [Example 85, 8-chloro-1-methyl-4-(piperazin-1-yl)-[1,2,4]triazolo[4,3-a]quinoxaline]"
< 10,> 10,"CCc1nnc2c(N3CCN(C)CC3)nc3ccc(Cl)cc3n12 [Example 86, 8-chloro-1-ethyl-4-(4-methylpiperazin-1-yl)-[1,2,4]triazolo[4,3-a]quinoxaline]"
< 10,> 10,"CC(C)c1nnc2c(N3CCN(C)CC3)nc3ccc(Cl)cc3n12 [Example 87, 8-chloro-1-isopropyl-4-(4-methylpiperazin-1-yl)-[1,2,4]triazolo[4,3-a]quinoxaline]"
< 10,> 10,"C=Cc1ccc2nc(N3CCN(C)CC3)c3nncn3c2c1 [Example 88, 4-(4-methylpiperazin-1-yl)-8-vinyl-[1,2,4]triazolo[4,3-a]quinoxaline]"
< 10,> 10,"C=Cc1ccc2nc(N3CCNCC3)c3nncn3c2c1 [Example 89, 4-(piperazin-1-yl)-8-vinyl-[1,2,4]triazolo[4,3-a]quinoxaline]"
< 10,> 10,"CCc1ccc2nc(N3CCN(C)CC3)c3nncn3c2c1 [Example 90, 8-ethyl-4-(4-methylpiperazin-1-yl)-[1,2,4]triazolo[4,3-a]quinoxaline]"
< 10,> 10,"CCc1ccc2nc(N3CCNCC3)c3nncn3c2c1 [Example 91, 8-ethyl-4-(piperazin-1-yl)-[1,2,4]triazolo[4,3-a]quinoxaline]"
< 10,> 10,"Clc1ccc2nc(N3CCNCC3)n3ncnc3c2c1 [Example 92, 9-Chloro-5-(piperazin-1-yl)-[1,2,4]triazolo[1,5-c]quinazoline]"
< 10,> 10,"Cc1nc2c3cc(Cl)c(Cl)cc3nc(N3CCN(C)CC3)n2n1 [Example 93, 8,9-Dichloro-2-methyl-5-(4-methylpiperazin-1-yl)-[1,2,4]triazolo[1,5-c]quinazoline]"
< 10,> 10,"Cc1nc2c3cc(Cl)c(Cl)cc3nc(N3CCNCC3)n2n1 [Example 94, 8,9-Dichloro-2-methyl-5-(piperazin-1-yl)-[1,2,4]triazolo[1,5-c]quinazoline]"
< 10,> 10,"Cc1nc2c3cc(Cl)c(F)cc3nc(N3CCNCC3)n2n1 [Example 96, 9-Chloro-8-fluoro-2-methyl-5-(piperazin-1-yl)-[1,2,4]triazolo[1,5-c]quinazoline]"
< 10,> 10,"Cc1nc2c3cc(F)c(F)cc3nc(N3CCN(C)CC3)n2n1 [Example 97, 8,9-Difluoro-2-methyl-5-(4-methylpiperazin-1-yl)-[1,2,4]triazolo[1,5-c]quinazoline]"
< 10,> 10,"Cc1nc2c3cc(F)c(F)cc3nc(N3CCNCC3)n2n1 [Example 98, 8,9-Difluoro-2-methyl-5-(piperazin-1-yl)-[1,2,4]triazolo[1,5-c]quinazoline]"
> 10,> 10,"Cc1ccc2nc(N3CCNCC3)n3nc(C)nc3c2c1 [Example 100, 2,9-Dimethyl-5-(piperazin-1-yl)-[1,2,4]triazolo[1,5-c]quinazoline]"

EC50 (human H4) [µM],EC50 (human H1) [µM],Compound
< 10,> 10,"COc1ccc2nc(N3CCN(C)CC3)n3nc(C)nc3c2c1 [Example 101, 9-Methoxy-2-methyl-5-(4-methylpiperazin-1-yl)-[1,2,4]triazolo[1,5-c]quinazoline]"
> 10,> 10,"COc1ccc2nc(N3CCNCC3)n3nc(C)nc3c2c1 [Example 102, 9-Methoxy-2-methyl-5-(piperazin-1-yl)-[1,2,4]triazolo[1,5-c]quinazoline]"
< 10,> 10,"Cc1nc2c3ccc(Cl)cc3nc(N3CCN(C)CC3)n2n1 [Example 105, 8-Chloro-2-methyl-5-(4-methylpiperazin-1-yl)-[1,2,4]triazolo[1,5-c]quinazoline]"
< 10,> 10,"Cc1nc2c3ccc(Cl)cc3nc(N3CCNCC3)n2n1 [Example 106, 8-Chloro-2-methyl-5-(piperazin-1-yl)-[1,2,4]triazolo[1,5-c]quinazoline]"
< 10,> 10,"Cc1nc2c3ccc(F)cc3nc(N3CCN(C)CC3)n2n1 [Example 107, 8-Fluoro-2-methyl-5-(4-methylpiperazin-1-yl)-[1,2,4]triazolo[1,5-c]quinazoline]"
> 10,> 10,"Cc1nc2c3ccc(F)cc3nc(N3CCNCC3)n2n1 [Example 108, 8-Fluoro-2-methyl-5-(piperazin-1-yl)-[1,2,4]triazolo[1,5-c]quinazoline]"
< 10,> 10,"Cc1nc2c3ccc(C(F)(F)F)cc3nc(N3CCNCC3)n2n1 [Example 110, 2-Methyl-5-(piperazin-1-yl)-8-(trifluoromethyl)-[1,2,4]triazolo[1,5-c]quinazoline]"
< 10,> 10,"CN1CCN(c2nc3ccc(Cl)cc3c3ncnn23)CC1 [Example 111, 9-chloro-5-(4-methylpiperazin-1-yl)-[1,2,4]triazolo[1,5-c]quinazoline]"
< 10,> 10,"CCc1nc2c3cc(Cl)ccc3nc(N3CCN(C)CC3)n2n1 [Example 114, 9-Chloro-2-ethyl-5-(4-methylpiperazin-1-yl)-[1,2,4]triazolo[1,5-c]quinazoline]"
< 10,> 10,"CCc1nc2c3cc(Cl)ccc3nc(N3CCNCC3)n2n1 [Example 115, 9-Chloro-2-ethyl-5-(piperazin-1-yl)-[1,2,4]triazolo[1,5-c]quinazoline]"
> 10,> 10,"CC(C)c1nc2c3cc(Cl)ccc3nc(N3CCN(C)CC3)n2n1 [Example 116, 9-Chloro-2-isopropyl-5-(4-methylpiperazin-1-yl)-[1,2,4]triazolo[1,5-c]quinazoline]"
> 10,> 10,"CC(C)c1nc2c3cc(Cl)ccc3nc(N3CCNCC3)n2n1 [Example 117, 9-Chloro-2-isopropyl-5-(piperazin-1-yl)-[1,2,4]triazolo[1,5-c]quinazoline]"
> 10,> 10,"CN1CCN(c2nc3ccc(Cl)cc3c3nc(Cc4ccccc4)nn23)CC1 [Example 118, 2-Benzyl-9-chloro-5-(4-methylpiperazin-1-yl)-[1,2,4]triazolo[1,5-c]quinazoline]"
> 10,> 10,"Clc1ccc2nc(N3CCNCC3)n3nc(Cc4ccccc4)nc3c2c1 [Example 119, 2-Benzyl-9-chloro-5-(piperazin-1-yl)-[1,2,4]triazolo[1,5-c]quinazoline]"
< 10,> 10,"CN1CCN(c2nc3ccc(C(F)(F)F)cc3c3nc(C(F)(F)F)nn23)CC1 [Example 120, 5-(4-methylpiperazin-1-yl)-2,9-bis(trifluoromethyl)-[1,2,4]triazolo[1,5-c]quinazoline]"
